# Columns and labels:
# [1] = Titration of DPA acid groups with calcium ions; assay type: physicochemical; settings: calcium titrated down from 16 to 1 equivalent by halving
# Excerpt: The […] (SEQ ID NO: 3) DPA was titrated with calcium ions to determine the number of acid groups that required ion complexation in order for gelation to occur. Theoretically, there are eight acid groups (four per head group) that could be involved in the gelation process (FIG. 4).
# [2] = Gelation experiments: inversion test for self-supporting hydrogels; assay type: physicochemical; settings: for Gelation (self-supporting gel on inversion), Calcium added: DMEM plus 10 μl of 100 mg/cc calcium chloride solution; for Concentration at which gel forms, Calcium added: DMEM with calcium chloride added; for Gelation (self-supporting gel on inversion), DMEM: DPA solution in water mixed 1:1 with DMEM, no calcium added; for Minimal concentration at which gel formed: in DMEM with calcium added; for Gelation (self-supporting gel on inversion), Water: in water, final concentrations 1, 2 and 4 weight percent tested
# Method: (§1) Inversion tests were performed to determine qualitatively under which conditions the various DPAs formed self-supporting hydrogels. The various types of DPAs were tested by dissolving them in ultrapure water (>18 MΩ resistivity) at double the desired final concentration followed by mixing in a 1:1 ratio with different liquid mediums. Gelation was deemed to have occurred if the gel supported its own weight upon inverting the vial (FIG. 3A and FIG. 3B). Gelation was tested at final concentrations of 1, 2 and 4 weight percent. We tested phosphate buffered saline (PBS), and Dulbecco's modified eagle media (DMEM) as liquid medium. Typical scale is 100 μl each of DPA solution in water and mixing medium but other scales have been tested. Finally, if no spontaneous gelation occurs, 10 μl of 100 mg/cc calcium chloride solution was added to induce gelation.
# [3] = Oscillating rheology, time sweep (kinetics of formation); assay type: physicochemical
# Method: Oscillating rheology by the parallel plates method (radius=25 mm) was performed on 400 μl gels to assess the mechanical strengths of gels. Time sweeps were performed to evaluate kinetics of formation at a constant strain rate of 1% and frequency of 1 rad/s. Strain sweeps were performed ranging from 1-100% strain in increments of 2% at a constant frequency of 1 rad/s. Cross-over of G′ and G″ was used to determine the gel point and point of breakdown. Time sweeps were initiated immediately after mixing the solutions that lead to DPA hydrogel formation. In the strain sweeps, the gels were allowed to form on the plate for 30 minutes before the measurement is initiated.
# The gelation process was initiated on the plate at 25° C. by the addition of 10 μl of 100 mg/ml calcium chloride solution to a solution of the DPA in DMEM.
# [4] = system: Sprague-Dawley rats; assay: Biocompatibility study, gel injected into intra-gluteal muscle pocket; assay type: in vivo; settings: rat; for Tissue response (histology): harvest at 3, 7 and 28 days
# Method: A biocompatibility study was performed on Gly-Val-Ala-Val-Ala-Val-Ala-Glu-Gly-Glu (SEQ ID NO: 4), Gly-Phe-Gly-Phe-Gly-Phe-Gly-Glu-Gly-Glu (SEQ ID NO: 5) and Gly-Phe-Gly-Phe-Gly-Phe-Gly-Gln-Gln-Ser (SEQ ID NO: 8) DPAs. Lyophilized DPA powders were e-beam sterilized in 1.5 cc polypropylene cryovials at 15 KGy. Gels were pre-formed in 1 cc syringes by mixing a 4 wt % DPA solution in water for injection in a 1:1 ratio with DMEM followed by immediate aspiration into the syringe. In the case of the formulations with the Glu-Gly-Glu (SEQ ID NO: 27) sequence in the solubility enhancing region, 10 μl of a sterile 100 mg/cc calcium chloride solution was mixed in before aspiration into the syringe. An intra-gluteal muscle pocket was created in Sprague-Dawley rats after which 100 μl of gel was injected using a catheter fitted to the syringe. Subsequently, the pocket was closed with polyglactin 910 sutures sold under the tradename VICRYL (Ethicon, Somerville, N.J.). Tissue was harvested at 3, 7 and 28 days after implantation.
# [5] = Cell viability of encapsulated hUTCs in DPA gels (Live/Dead); assay type: cell-based, human; settings: human, human umbilical cord cells (hUTCs) encapsulated in DPA gel; 2% DPA, 100,000 cells, calcium chloride added, after 7 days of culture, Live/Dead; read-out: Viability of hUTC cells in the gels
# Method: The viability and proliferation of cells in the gels was evaluated by encapsulating human umbilical cord cells (hUTCs) in the gels. hUTCs were isolated as described in U.S. Pat. No. 7,510,873. Cells were thawed from storage and cultured for four days in Hayflick media. After four days, the cells were trypsinized and counted by the Guava ViaCount methodology (Millipore, Billerica, Mass.). Cells were re-suspended in Hayflick media at a density of 1,000,000 cells/ml. Encapsulation of the cells in the gels was achieved by adding 100 μl cell suspension to 100 μl of a 4 wt % DPA solution in ultrapure in a 24 well plate, resulting in a final DPA concentration of 2%. The gels were incubated for 1 h at 37° C., 5% CO2 after which 1000 μl media was added on top of the gel. Cells were incubated at 37° C., 5% CO2. Every 3-4 days of culture, 500 μl media was replaced.
# After mixing of the cell suspension and 4% DPA solution by pipetting up and down, the protocol described above was modified by adding 10 μl 100 mg/ml calcium chloride solution upon which gelation occurred. Final concentrations are 2% in DPA and 100,000 cells. Control gels without cells were prepared by using pure media and additional cell only and cells with calcium chloride controls were prepared as standard 2D culture. After 7 days of culture, the gels were assayed with Live/Dead assay for cell viability and Invitrogen CyQuant GR assay for cell proliferation (Invitrogen, Carlsbad, Calif.). The Live/Dead was performed as described in the provided protocol but at half the […] concentration to reduce non-specific fluorescence due to dye absorption. […] The cells in the gels contained a lot of viable cells (FIG. 410). No dead cells could be observed in the gels. Therefore, the viability of these cells in the gels is very high (>95%).
# In a second experiment, 100,000 hUTC cells were encapsulated in 2 wt % Gly-Phe-Gly-Phe-Gly-Phe-Gly-Gln-Gln-Ser (SEQ ID NO: 8) DPA gels. The cells were cultured for 3 weeks and cells were assessed after 1, 2 and 3 weeks with Live/Dead.
# [6] = Dissolution of DPA in ultrapure water; assay type: physicochemical; settings: ultrapure water (>18 MΩ resistivity)
# Method: as §1
# [7] = 2 wt % DPA in DMEM, calcium chloride added, 25° C.
Compound,"Gelation (self-supporting gel on inversion), Calcium added [2]","Concentration at which gel forms, Calcium added [2] [wt %]","Gelation (self-supporting gel on inversion), DMEM [2]",Minimal concentration at which gel formed [2] [weight percent],"Gelation (self-supporting gel on inversion), Water [2]","G′ after 10 minutes [3, 7]",Solubility in ultrapure water [6],further results
CCCCCCCCCCCCCCCC(=O)NC(C(=O)N[C@H](C(=O)N[C@@H](C)C(=O)N[C@H](C(=O)N[C@@H](C)C(=O)N[C@H](C(=O)N[C@@H](C)C(=O)N[C@@H](CCC(=O)O)C(=O)N[C@@H](CCC(=O)O)C(=O)N[C@@H](CCC(=O)O)C(=O)O)C(C)C)C(C)C)C(C)C)C(=O)N[C@H](C(=O)N[C@@H](C)C(=O)N[C@H](C(=O)N[C@@H](C)C(=O)N[C@H](C(=O)N[C@@H](C)C(=O)N[C@@H](CCC(=O)O)C(=O)N[C@@H](CCC(=O)O)C(=O)N[C@@H](CCC(=O)O)C(=O)O)C(C)C)C(C)C)C(C)C [Val-Ala-Val-Ala-Val-Ala-Glu-Glu-Glu],Yes,2,No,2,No,,,Transition point between stable gel formation and no or weak gel formation [1]: between two and one equivalent of calcium
CCCCCCCCCCCCCCCC(=O)NC(C(=O)NCC(=O)N[C@H](C(=O)N[C@@H](C)C(=O)N[C@H](C(=O)N[C@@H](C)C(=O)N[C@H](C(=O)N[C@@H](C)C(=O)N[C@@H](CCC(=O)O)C(=O)NCC(=O)N[C@@H](CCC(=O)O)C(=O)O)C(C)C)C(C)C)C(C)C)C(=O)NCC(=O)N[C@H](C(=O)N[C@@H](C)C(=O)N[C@H](C(=O)N[C@@H](C)C(=O)N[C@H](C(=O)N[C@@H](C)C(=O)N[C@@H](CCC(=O)O)C(=O)NCC(=O)N[C@@H](CCC(=O)O)C(=O)O)C(C)C)C(C)C)C(C)C [Gly-Val-Ala-Val-Ala-Val-Ala-Glu-Gly-Glu],Yes,2,No,2,No,140 Pa,,"Gross observations ([4]; 100 μl gel, intra-gluteal muscle pocket, day 3, no longer observed at other time points): some fluid buildup at day 3; Tissue response (histology) ([4]; 100 μl gel, intra-gluteal muscle pocket): some necrosis of the underlying tissue layer was observed; Tissue response (histology) ([4]; 100 μl gel, intra-gluteal muscle pocket, listed as Val-Ala-Val-Ala-Val-Ala-Glu-Gly-Glu (SEQ ID NO: 39)): necrosis of the underlying muscle tissue; viability at 168 h, 2 % [5]: > 95%"
CCCCCCCCCCCCCCCC(=O)NC(C(=O)N[C@H](C(=O)N[C@@H](C)C(=O)N[C@H](C(=O)N[C@@H](C)C(=O)N[C@H](C(=O)N[C@@H](C)C(=O)N[C@@H](CCCCN)C(=O)N[C@@H](C)C(=O)O)C(C)C)C(C)C)C(C)C)C(=O)N[C@H](C(=O)N[C@@H](C)C(=O)N[C@H](C(=O)N[C@@H](C)C(=O)N[C@H](C(=O)N[C@@H](C)C(=O)N[C@@H](CCCCN)C(=O)N[C@@H](C)C(=O)O)C(C)C)C(C)C)C(C)C [Val-Ala-Val-Ala-Val-Ala-Lys-Ala],,,,,,,could not be solubilized,
CCCCCCCCCCCCCCCC(=O)NC(C(=O)N[C@@H](Cc1ccccc1)C(=O)NCC(=O)N[C@@H](Cc1ccccc1)C(=O)NCC(=O)N[C@@H](Cc1ccccc1)C(=O)NCC(=O)N[C@@H](CCCCN)C(=O)N[C@@H](C)C(=O)O)C(=O)N[C@@H](Cc1ccccc1)C(=O)NCC(=O)N[C@@H](Cc1ccccc1)C(=O)NCC(=O)N[C@@H](Cc1ccccc1)C(=O)NCC(=O)N[C@@H](CCCCN)C(=O)N[C@@H](C)C(=O)O [Phe-Gly-Phe-Gly-Phe-Gly-Lys-Ala],,,,,,,could not be solubilized,
CCCCCCCCCCCCCCCC(=O)NC(C(=O)NCC(=O)N[C@@H](Cc1ccccc1)C(=O)NCC(=O)N[C@@H](Cc1ccccc1)C(=O)NCC(=O)N[C@@H](Cc1ccccc1)C(=O)NCC(=O)N[C@@H](CCC(=O)O)C(=O)NCC(=O)N[C@@H](CCC(=O)O)C(=O)O)C(=O)NCC(=O)N[C@@H](Cc1ccccc1)C(=O)NCC(=O)N[C@@H](Cc1ccccc1)C(=O)NCC(=O)N[C@@H](Cc1ccccc1)C(=O)NCC(=O)N[C@@H](CCC(=O)O)C(=O)NCC(=O)N[C@@H](CCC(=O)O)C(=O)O [Gly-Phe-Gly-Phe-Gly-Phe-Gly-Glu-Gly-Glu],Yes,1,No,1,No,"4,000 Pa",,"G′ after 10 minutes ([3]; 1 wt % DPA in DMEM, calcium chloride added, 25° C.): 300 Pa; Estimated final strength (extrapolation of the curve) ([3]; 2 wt % DPA in DMEM, calcium chloride added): ~10,000 Pa; G′ (strength) after 1 hour [3, 7]: 7,200 Pa; G′ after temperature raised to 37° C. ([3]; 2 wt % DPA, after 1 hour, temperature raised from 25° C. to 37° C.): 5,000 Pa; Gross observations ([4]; in vivo): some fluid buildup at day 3; viability at 168 h [5]: > 95%"

# — patent US8546338B2, “Self-assembling hydrogels based on dicephalic peptide amphiphiles” (Johnson & Johnson Consumer Companies, Inc., priority 2010, dated 2013)
